The values below come from US11691962B2 (eXIthera Pharmaceuticals, Inc., priority 2018, dated 2023).

Common to all, as to type: biochemical
Assay [1] has as its target Factor Xa (Homo sapiens (Human), UniProt P00742). Kind of assay: Dose response assay for protease inhibitors: Factor Xa. The conditions noted are these: selectivity, Factor Xa over Factor XIa. As to the method:
(§1) • Assay buffer: 20 mM Hepes, pH 7.4; 150 mM NaCl; 0.02% Tween 20 • Compounds: 10 mM stocks in DMSO • Substrate: 20 mM Glp-Pro-Arg-AMC, 25 mg/2.3 mL H2O (store at +4° C.) [Factor XIa, thrombin, and trypsin] • 20 mM Pro-Phe-Arg-AMC (Bachem I-1295), 25 mg/2.2 mL H2O • or Boc-Leu-Gly-Arg-AMC (Bachem I-1105), 25 mg/2.07 mL H2O • (store at +4° C.) [Factor Xa] • Enzyme: Factor XIa; 0.25 μM in 50% glycerol (20 μg/mL) • Trypsin; 0.2 μM in 50% glycerol (4.8 μg/mL) • Thrombin; 0.2 μM in 50% glycerol (7.34 μg/mL) • Factor Xa; 0.2 μM in 50% glycerol (9.2 μg/mL) • These stocks are aliquoted (˜100 μL/aliquot) and stored at −20° C. Methods: • 1. Dilute the substrate to 100 μM in assay buffer (30 μL/6 mL). The enzyme is diluted to 0.5 nM just prior to use (12 μL/6 mL for Factor XIa; 15 μL/6 mL for all of the rest.) • 2. Pipette 50 μL of substrate into each well of the 96 well (12×8) microtiter plate. (Column 1 is used as the 100% activity control and receives no compound, and Column 12 is the blank and receives no enzyme.) Add an additional 46 μL to column 2. • 3. Pipette 4 μL of each compound into the appropriate well in column 2 of the plate (unknowns assayed in triplicate, standard assayed in duplicate). The final compound concentration will be […] of the stock. • 4. Serially two-fold dilute the compound by mixing the sample in column 2, removing 50 μL to the next well (column 3), mix and remove to column 4, etc. until column 11. After mixing column 11, remove 50 μL and discard. • 5. Pipette 50 μL of buffer into column 12. Initiate the reaction by adding 50 μL of enzyme solution to each well of columns 1-11 as rapidly as possible. • 6. Read the plate in a spectrophotometer (SpectraMax) at 30° C., wherein each well is measured every 60 s for 30 min. For Factor Xa assays, each well is measured every 1 min for a total of 60 min. • 7. For Factor XIa assays, the compounds are assayed, in duplicate, at 3 different starting concentrations, 20, 2, and 0.2 μM; 1:10, 1:100, and 1:1000 dilution of 10 mM stock or at 2, 0.2, and 0.02 μM; 1:100, 1:1000, and 1:10,000 dilution of 10 mM stock. Data for each concentration are combined for graphing and data fitting. • 8. Data can be used both for estimation of IC50 and for estimation of Kon.

In assay [2] the target is Factor XIa (Homo sapiens (Human), UniProt P03951). In words: Factor XIa enzyme inhibition assay (dose response, fluorogenic AMC substrate). Particulars: read-out: hFXIa IC50. The essentials: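 Human FXIa at 0.25 nM final with 50 μM final PyroGlu-Pro-Arg-AMC in 20 mM Hepes pH 7.4, 150 mM NaCl, 0.02% Tween 20. Two-fold serial compound dilutions; fluorescence read every minute for 30 min at 30° C. IC50 from a four-parameter Hill fit.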

In assay [3] the test system is Trypsin. Kind of assay: Dose response assay for protease inhibitors: trypsin. Particulars: selectivity, trypsin over Factor XIa. The procedure:
as §1

The target in assay [4] is Thrombin (Homo sapiens (Human), UniProt P00734). In words: Dose response assay for protease inhibitors: thrombin. The conditions noted are these: selectivity, thrombin over Factor XIa. The procedure:
as §1

Chain of Factor Xa (P00742 235-488): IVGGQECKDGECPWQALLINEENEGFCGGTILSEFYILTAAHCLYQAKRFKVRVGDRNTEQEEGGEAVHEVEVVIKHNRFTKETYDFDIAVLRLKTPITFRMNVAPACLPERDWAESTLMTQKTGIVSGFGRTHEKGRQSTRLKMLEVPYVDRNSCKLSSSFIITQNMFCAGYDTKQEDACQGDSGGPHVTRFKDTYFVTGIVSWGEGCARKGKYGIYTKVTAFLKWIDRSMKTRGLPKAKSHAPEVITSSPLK
Chain of Factor Xa (P00742 41-179 partner): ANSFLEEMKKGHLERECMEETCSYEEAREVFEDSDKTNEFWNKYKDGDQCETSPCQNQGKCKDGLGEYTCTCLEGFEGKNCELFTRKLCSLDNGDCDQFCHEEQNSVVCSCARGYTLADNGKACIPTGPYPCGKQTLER
Chain of Factor XIa (P03951 388-625): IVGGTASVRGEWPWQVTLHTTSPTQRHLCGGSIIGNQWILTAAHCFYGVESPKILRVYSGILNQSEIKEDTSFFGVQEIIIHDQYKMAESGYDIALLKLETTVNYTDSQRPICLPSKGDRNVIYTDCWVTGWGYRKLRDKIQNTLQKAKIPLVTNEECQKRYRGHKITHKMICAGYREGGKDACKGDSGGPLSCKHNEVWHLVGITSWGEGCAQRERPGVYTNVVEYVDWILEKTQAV
Chain of Factor XIa (P03951 19-387 partner): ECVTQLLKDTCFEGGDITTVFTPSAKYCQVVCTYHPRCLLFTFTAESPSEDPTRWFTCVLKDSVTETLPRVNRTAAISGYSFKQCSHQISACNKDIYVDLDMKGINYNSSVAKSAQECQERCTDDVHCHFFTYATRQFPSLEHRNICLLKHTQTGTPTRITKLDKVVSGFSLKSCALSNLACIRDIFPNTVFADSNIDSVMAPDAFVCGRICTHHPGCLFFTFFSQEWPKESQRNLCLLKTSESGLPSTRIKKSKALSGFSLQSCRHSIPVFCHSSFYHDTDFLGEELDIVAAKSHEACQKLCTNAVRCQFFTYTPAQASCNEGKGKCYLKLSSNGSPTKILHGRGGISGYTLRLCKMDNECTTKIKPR

The term IC50 denotes the concentration at which inhibition is half-maximal. On to `CN(C(=O)[C@@H]1[C@@H](Cc2ccnc(N)c2)C(=O)N1C(=O)NC(c1cccc(Cl)c1)C(F)(F)F)c1ccn(C)n1` (stereo in doubt) [Compound 1-38, (2S,3R)-3-((2-aminopyridin-4-yl)methyl)-N2-(1-methyl-1H-pyrazol-3-yl)-N1-((R)-1-(3-chlorophenyl)-2,2,2-trifluoroethyl)-N2-methyl-4-oxoazetidine-1,2-dicarboxamide], for which, in assay [1], the “Ratio: FXa/FXIa” value was “H (“H” indicates 101-1000)”. Also, the IC50 in assay [2] is < 0.01 µM. Further, in assay [3], the “Ratio: Trypsin/FXIa” value is given as “G (“G” indicates 1-100)”. Moreover, the “Ratio: Thrombin/FXIa” value in assay [4] is reported as “G (“G” indicates 1-100)”. As for `CN(C(=O)[C@@H]1[C@@H](Cc2ccnc(N)c2)C(=O)N1C(=O)NC(C1CCCCC1)C(F)(F)F)c1nccn1C` (stereo in doubt) [Compound 1-56, (2S,3R)-3-((2-aminopyridin-4-yl)methyl)-N2-(1-methyl-1H-imidazol-2-yl)-N1-((R)-1-cyclohexyl-2,2,2-trifluoroethyl)-N2-methyl-4-oxoazetidine-1,2-dicarboxamide], the “Ratio: FXa/FXIa” value in assay [1] is recorded as “I (“I” indicates > 500)”. In assay [2], the IC50 was < 0.01 µM. In addition, the “Ratio: Trypsin/FXIa” value in assay [3] was “G (“G” indicates 1-100)”. Besides, the “Ratio: Thrombin/FXIa” value in assay [4] is reported as “H (“H” indicates 101-1000)”. Taken in the same sequence, the figures for `CC[C@@H](NC(=O)N1C(=O)[C@H](Cc2ccnc(N)c2)[C@H]1C(=O)N(C)c1cncs1)c1ccccc1` [Compound 1-12, (2S,3R)-3-((2-aminopyridin-4-yl)methyl)-N2-(5-thiazolyl)-N1-((R)-1-phenylpropyl)-N2-methyl-4-oxoazetidine-1,2-dicarboxamide] were “H (“H” indicates 101-1000)”, < 0.01 µM, “G (“G” indicates 1-100)” and “H (“H” indicates 101-1000)”. As for `CC[C@@H](NC(=O)N1C(=O)[C@H](Cc2ccnc(N)c2)[C@H]1C(=O)N(C)c1nccn1C)c1ccc(C)c(C)c1C` [Compound 1-209, (2S,3R)-3-((2-aminopyridin-4-yl)methyl)-N2-(1-methyl-1H-imidazol-2-yl)-N1-((R)-1-(2,3,4-trimethylphenyl)propyl)-N2-methyl-4-oxoazetidine-1,2-dicarboxamide], the IC50 in assay [2] was < 0.01 µM. On the same count and under the same terms, with `CC[C@@H](NC(=O)N1C(=O)[C@H](Cc2ccnc(N)c2)[C@H]1C(=O)N(C)c1nccn1C)c1ccc(F)c(F)c1F` [Compound 1-210, (2S,3R)-3-((2-aminopyridin-4-yl)methyl)-N2-(1-methyl-1H-imidazol-2-yl)-N1-((R)-1-(2,3,4-trifluorophenyl)propyl)-N2-methyl-4-oxoazetidine-1,2-dicarboxamide] the figure was < 0.01 µM. Same read-out and setting: with `CC[C@@H](NC(=O)N1C(=O)[C@H](Cc2ccnc(N)c2)[C@H]1C(=O)N(C)c1nccn1C)c1ccc(F)c(C)c1C` [Compound 1-211, (2S,3R)-3-((2-aminopyridin-4-yl)methyl)-N2-(1-methyl-1H-imidazol-2-yl)-N1-((R)-1-(2,3-dimethyl-4-fluorophenyl)propyl)-N2-methyl-4-oxoazetidine-1,2-dicarboxamide] the figure was < 0.01 µM. Still for that read-out and setting: with `CC[C@@H](NC(=O)N1C(=O)[C@H](Cc2ccnc(N)c2)[C@H]1C(=O)N(C)c1nccn1C)c1ccc(F)c(F)c1C` [Compound 1-212, (2S,3R)-3-((2-aminopyridin-4-yl)methyl)-N2-(1-methyl-1H-imidazol-2-yl)-N1-((R)-1-(3,4-difluoro-2-methylphenyl)propyl)-N2-methyl-4-oxoazetidine-1,2-dicarboxamide] the figure was < 0.01 µM; with `CC[C@@H](NC(=O)N1C(=O)[C@H](Cc2ccnc(N)c2)[C@H]1C(=O)N(C)c1ccnn1C)c1cccc(F)c1F` [Compound 1-213, (2S,3R)-3-((2-aminopyridin-4-yl)methyl)-N2-(1-methyl-1H-pyrazol-5-yl)-N1-((R)-1-(2,3-difluorophenyl)propyl)-N2-methyl-4-oxoazetidine-1,2-dicarboxamide], < 0.01 µM.

With `CC[C@@H](NC(=O)N1C(=O)[C@H](Cc2ccnc(N)c2)[C@H]1C(=O)N(C)c1ccnn1C)c1ccc(F)c(C)c1` [Compound 1-214, (2S,3R)-3-((2-aminopyridin-4-yl)methyl)-N2-(1-methyl-1H-pyrazol-5-yl)-N1-((R)-1-(4-fluoro-3-methylphenyl)propyl)-N2-methyl-4-oxoazetidine-1,2-dicarboxamide], the half-inhibitory concentration (IC50) in assay [2] was < 0.01 µM. Still for that read-out and setting: to `CC[C@@H](NC(=O)N1C(=O)[C@H](Cc2ccnc(N)c2)[C@H]1C(=O)N(C)c1ccnn1C)c1ccc(F)c(F)c1` [Compound 1-215, (2S,3R)-3-((2-aminopyridin-4-yl)methyl)-N2-(1-methyl-1H-pyrazol-5-yl)-N1-((R)-1-(3,4-difluorophenyl)propyl)-N2-methyl-4-oxoazetidine-1,2-dicarboxamide] belongs < 0.01 µM; to `CC[C@@H](NC(=O)N1C(=O)[C@H](Cc2ccnc(N)c2)[C@H]1C(=O)N(C)c1ccnn1C)c1ccc(C)c(F)c1` [Compound 1-216, (2S,3R)-3-((2-aminopyridin-4-yl)methyl)-N2-(1-methyl-1H-pyrazol-5-yl)-N1-((R)-1-(3-fluoro-4-methylphenyl)propyl)-N2-methyl-4-oxoazetidine-1,2-dicarboxamide], < 0.01 µM. Still for that read-out and setting: to `CC[C@@H](NC(=O)N1C(=O)[C@H](Cc2ccnc(N)c2)[C@H]1C(=O)N(C)c1ccnn1C)c1cc(F)ccc1F` [Compound 1-217, (2S,3R)-3-((2-aminopyridin-4-yl)methyl)-N2-(1-methyl-1H-pyrazol-5-yl)-N1-((R)-1-(2,5-difluorophenyl)propyl)-N2-methyl-4-oxoazetidine-1,2-dicarboxamide] belongs < 0.01 µM. The same measure, in the same setting: to `CC[C@@H](NC(=O)N1C(=O)[C@H](Cc2ccnc(N)c2)[C@H]1C(=O)N(C)c1nccn1C)c1ccc(C)c(C)c1F` [Compound 1-218, (2S,3R)-3-((2-aminopyridin-4-yl)methyl)-N2-(1-methyl-1H-imidazol-2-yl)-N1-((R)-1-(2-fluoro-3,4-dimethylphenyl)propyl)-N2-methyl-4-oxoazetidine-1,2-dicarboxamide] belongs < 0.01 µM; to `CC[C@@H](NC(=O)N1C(=O)[C@H](Cc2ccnc(N)c2)[C@H]1C(=O)N(C)c1ccnn1C)c1cc(F)ccc1C` [Compound 1-219, (2S,3R)-3-((2-aminopyridin-4-yl)methyl)-N2-(1-methyl-1H-pyrazol-5-yl)-N1-((R)-1-(5-fluoro-2-methylphenyl)propyl)-N2-methyl-4-oxoazetidine-1,2-dicarboxamide], < 0.01 µM. `CC[C@H](NC(=O)N1C(=O)[C@H](Cc2ccnc(N)c2)[C@H]1C(=O)N(C)c1nccn1C)c1cccc(F)c1` [Compound 1-220, (2S,3R)-3-((2-aminopyridin-4-yl)methyl)-N2-(1-methyl-1H-imidazol-2-yl)-N1-((S)-1-(3-fluorophenyl)propyl)-N2-methyl-4-oxoazetidine-1,2-dicarboxamide]: the IC50 in assay [2] is 0.01 to 0.1 µM. On to `CC[C@H](NC(=O)N1C(=O)[C@H](Cc2ccnc(N)c2)[C@H]1C(=O)N(C)c1nccn1C)c1cc(F)ccc1F` [Compound 1-221, (2S,3R)-3-((2-aminopyridin-4-yl)methyl)-N2-(1-methyl-1H-imidazol-2-yl)-N1-((S)-1-(2,5-difuorophenyl)propyl)-N2-methyl-4-oxoazetidine-1,2-dicarboxamide], for which, in assay [2], the IC50 lay within 0.1 to 1 µM. Turning to “(2S,3R)-3-((2-aminopyridin-4-yl)methyl)-N2-(1-methyl-1H-imidazol-2-yl)-N1-((R)-1-(3-chlorophenyl)propyl)-N1-methyl-N2-methyl-4-oxoazetidine-1,2-dicarboxamide [Compound 1-65]”, in assay [2], the IC50 lay within 0.01 to 0.1 µM.
